Results on six molecules are retold here after patent US6949575B2, “Method of inhibiting amyloid protein aggregation and imaging amyloid deposits using aminoindane derivatives” (Pfizer Inc., priority 2000, dated 2005).

For one assay, the target named is T1, Soluble Aβ(1-40) peptide (Homo sapiens, UniProt P05067).
T1 construct: Soluble Aβ(1-40) peptide; purchased Bachem, Torrance, Calif
The assay can be described thus: BASSR (Beta-Amyloid Self-Seeding Radioassay): inhibitors of self-seeded amyloid fibril growth. In kind it is biochemical. As to conditions: 30 μM soluble Aβ(1-40) + 125I-labeled Aβ(1-40), 37° C., 3 to 5 hours, filtration; replicate values. As for the experimental part:
BASSR (Beta-Amyloid Self-Seeding Radioassay)
An assay for inhibitors of self-seeded amyloid fibril growth
Assay Buffer—[…] sodium phosphate, pH 7.5, 100 mM NaCl, 0.02% NaN3, 1 M urea (filter and store at 4° C.)
Soluble Aβ(1-40) peptide (Bachem, Torrance, Calif.)—2.2 mg/mL in deionized H2O (stored in aliquots at −20° C., keep on ice when thawed) will self-seed after 1 week storage. Typically, the solution should be stored until no lag phase is seen in the assay.
^125I-labeled Aβ(1-40)—150 to 350K cpm/μL in 100% acetonitrile—0.1% trifluoroacetic acid (TFA)—1% β-mercaptoethanol (aliquots stored at −20° C.). ^125I-labeled Aβ(1-40) can be made in accordance with the procedure set forth by H. Levine, III in Neurobiol. Aging, 16:755 (1995), which is hereby incorporated by reference, or this reagent may be purchased from Amersham, Arlington Heights, Ill. Final assay conditions: 30 μM soluble Aβ(1-40) in deionized water in assay buffer+20 to 50K cpm ^125I-labeled Aβ(1-40) per assay. Compound to be tested is dissolved in dimethylsulfoxide (DMSO), typically 5 to 50 mM stock, such that the final concentration of DMSO is <1% v/v in the assay. Assay: Reaction mixture for 50 assays (on ice) is comprised of 0.1 to 0.2 μL of ^125I-labeled A^125I-labeled Aβ(1-40)+1 μL of soluble Aβ(1-40)+13.5 μL assay buffer per assay. The following are the amounts of the components of the reaction mixture sufficient for 50 assay wells.
• 1) Prepare reaction mixture above by mixing components and storing on ice. • 2) Pipet 14.5 μL of reaction mixture into each of 50 wells on a polypropylene U-bottom 96-well microtiter plate on ice (Costar 3794). • 3) Add 1.7 μL of diluted compound to be tested to each well in a column of eight, including solvent control. Serial 3-fold dilutions from 1 mM (100 μM final) in assay buffer-urea=7 dilutions+zero. Each 96-well plate can therefore accommodate 11 samples+1 Congo Red control (0.039-5 μM final in 2-fold steps). • 4) Seal the plate with aluminum film (Beckman 538619) and incubate for 10 minutes on ice. • 5) Raise the temperature to 37° C. and incubate for 3 to 5 hours (depending on the lot of the peptide). • 6) Remove the aluminum film and add 200 μL/well of ice cold assay buffer with urea, collecting the radiolabeled fibrils by vacuum filtration through 0.2-μm pore size GVWP filters in 96-well plates (Millipore MAGV N22, Bedford, Mass.). Determine the radioactivity of the filters using standard methods well-known to those skilled in the art. BASST (Beta-Amyloid Self-Seeding, Thioflavin T)

For the next assay, the target named is T2, Soluble Aβ(1-40) (Homo sapiens, UniProt P05067).
T2 construct: Soluble Aβ(1-40)—2.2 mg/mL in deionized H2O
T2 sequence (P05067 672-711 limits assumed): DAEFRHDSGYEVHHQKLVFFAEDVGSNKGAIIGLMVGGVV
The assay can be described thus: BASST (Beta-Amyloid Self-Seeding, Thioflavin T): inhibitors of self-seeded amyloid fibril growth. The class given is biochemical. As to conditions: 30 μM soluble Aβ(1-40), 37° C., 3 to 5 hours, thioflavin T fluorescence. How it is done: • 1) Prepare reaction mixture above by mixing components and storing on ice. • 2) Pipet 14.5 μL of reaction mixture into each of 50 wells on a polypropylene U-bottom 96-well microtiter plate on ice (Costar 3794). • 3) Add 1.7 μL of diluted compound to be tested to each well in a column of eight, including solvent control. Serial 3-fold dilutions from 1 mM (100 μM final) in assay buffer-urea=7 dilutions+zero. Each 96-well plate can therefore accommodate 11 samples+1 Congo Red control (0.039-5 μM final in 2-fold steps). • 4) Seal the plate with aluminum film (Beckman 538619) and incubate for 10 minutes on ice. • 5) Raise the temperature to 37° C. and incubate for 3 to 5 hours (depending on the lot of the peptide). • 6) Remove the aluminum film and add 200 μL/well of ice cold assay buffer with urea, collecting the radiolabeled fibrils by vacuum filtration through 0.2-μm pore size GVWP filters in 96-well plates (Millipore MAGV […], Bedford, Mass.). Determine the radioactivity of the filters using standard methods well-known to those skilled in the art. BASST (Beta-Amyloid Self-Seeding, Thioflavin T) An assay for inhibitors of self-seeded amyloid fibril growth Methods: Materials: Stock Solutions: Assay Buffer-50 mM sodium phosphate, pH 7.5, 100 mM NaCl, 0.02% NaN3, 1 M urea (filter and store at 4° C.) Soluble Aβ(1-40)-2.2 mg/mL in deionized H2O (store in aliquots at -20° C., keep on ice when thawed) will self-seed after 1 week storage. Typically, the solution should be stored until no lag phase is seen in the assay. Final assay conditions: 30 μM soluble Aβ(1-40) in deionized water in assay buffer. Compound to be tested is dissolved in DMSO, typically 5 to 50 mM stock, such that the final concentration of DMSO is <1% v/v in the assay. Assay: Reaction mixture for 50 assays (on ice) comprised of 1 μL of soluble Aβ(1-40)+13.5 μL assay buffer per assay. The following are the amounts of the components of the reaction mixture that result in each of the 50 assay wells. 50 μL soluble Aβ(1-40) 675 μL assay buffer Assay Method • 1) Prepare the reaction mix above by mixing the components and storing on ice. • 2) Pipet 14.5 μL of reaction mixture into each of 50 wells of a polystyrene U-bottom 96-well microtiter plate (Coming 25881-96) on ice. • 3) Add 1.7 μL of diluted compound to be tested to each well in a column of eight, including solvent control. Serial 3-fold dilutions from 1 mM (100 μM final) in assay buffer-urea=7 dilutions+zero. Each 96-well plate can therefore accommodate 11 samples+1 Congo Red control (0.039-5 μM final in 2-fold steps). • 4) Seal the plate with aluminum film and incubate for 10 minutes on ice. • 5) Raise the temperature to 37° C. and incubate for 3 to 5 hours (depends on the lot of the peptide). • 6) Remove the aluminum film and add 250 μL/well of 5 μM thioflavin T (ThT) [T-3516, Sigma-Aldrich] in 50 mM glycine-NaOH, pH 8.5. Read fluorescence on a plate reader (ex=440 nm/20 nm; em=485 nm/20 nm) within 5 minutes. BAPA (Beta-Amyloid Peptide Aggregation)

Structures are written as SMILES. Where “and” joins values, the source holds several entries; their conditions need not be identical. Equal entries are not always repeated. Bounds are passed on as bounds.

T1 sequence (P05067 672-711 limits assumed): as above

As to `CCCCCN(CCCCC)C1Cc2ccc(Nc3ccc([N+](=O)[O-])cc3C(=O)O)cc2C1` (stereo not drawn) [Example 1, 2-[(2-N,N-di-n-pentylamino)-indan-5-yl]amino-5-nitro-benzoic Acid], the 50% inhibitory concentration (IC50) on Soluble Aβ(1-40) peptide is > 100 µM; on Soluble Aβ(1-40) it was 40 µM.

In the case of `COc1ccc(Nc2ccc3c(c2)CC(NCc2ccc(Cl)c(Cl)c2)C3)c(C(=O)O)c1` (stereo not drawn) [Example 5, 2-[2-(3,4-Dichlorobenzylamino)-indan-5-ylamino]-5-methoxy-benzoic acid], the IC50 is > 100 µM (2×) and 30 µM at Soluble Aβ(1-40) peptide; 30 µM against Soluble Aβ(1-40).

As to `CCCCCN(CCCCC)C1Cc2ccc(Nc3ccc(C)cc3C(=O)O)cc2C1` (stereo not drawn) [Example 6, 2-(2-Dipentylamino-indan-5-yl-amino)-5-methyl-benzoic acid], the 50% inhibitory concentration (IC50) at Soluble Aβ(1-40) peptide was > 100 µM; at Soluble Aβ(1-40), 21 µM and > 100 µM.

Regarding `CCCCCN(CCCCC)C1Cc2ccc(Nc3ccc(C(=O)O)cc3[N+](=O)[O-])cc2C1` (stereo not drawn) [Example 7, 4-(2-Dipentylamino-indan-5-yl-amino)-3-nitro-benzoic Acid], the IC50 was > 100 µM (3×) and 15 µM on Soluble Aβ(1-40) peptide; 8 µM against Soluble Aβ(1-40).

`O=C(O)c1cc([N+](=O)[O-])ccc1Nc1ccc2c(c1)CC(NCc1ccc(F)cc1)C2` (stereo not drawn) [Example 10, 2-[2-(4-Fluorobenzylamino)-indan-5-ylamino]-5-nitro-benzoic acid]: the IC50 on Soluble Aβ(1-40) peptide was > 100 µM (2×) and 90 µM and 10 µM; on Soluble Aβ(1-40), 30 µM.

For the molecule `CCCCCNC1Cc2ccc(Nc3ccc([N+](=O)[O-])cc3C(=O)O)cc2C1` (stereo not drawn) [Example 12, 2-[2-(n-Pentylamino)-indan-5-ylamino]-5-nitro-benzoic acid], the IC50 on Soluble Aβ(1-40) peptide and on Soluble Aβ(1-40) was > 100 µM throughout.

A word on the IC50: it is the concentration that gives 50% inhibition.
